From patent US20020123080A1, “Inhibiting proliferation of cancer cells” (Tufts University, priority 1996, published 2002)

What follows are compounds tested on MCF-7 cells (assay: MCF-7 cell proliferation yield assay (nuclei counted after 4 days) with or without hormone). Conditions: hormone added with the inhibitor (CDHuS, CDHA, rHA); estradiol at 100 pM; the other hormones tested against rHA, data not shown.
Assay type: cell-based, human
Method: A clonal population of the human breast cancer MCF-7 cell line was used in some of the experiments described below. These cells were routinely grown in 5% fetal bovine serum (FBS) supplemented-Dulbecco's Modified Eagle's Medium (DME). […] Estrogen non-target, serum-insensitive human breast cancer MDA-MB231 cells (ATCC, Rockville, Md.) were used as controls; they were grown under the same conditions as MCF-7 cells.
To assess the inhibitory effect of serum or purified protein preparations, 4×10^4 cells/well were seeded in 12-well Falcon Multiplates in 5% FBS; they were allowed to attach for 24 h before exposing them to test medium. Cell proliferation yields were measured after 4 days in DME plus 25 ug transferrin (T)/ml and 100 ng insulin (I)/ml ([…]) alone, or ITDME plus CD human serum (CDHuS), or purified protein preparations. Each sample was tested in duplicate in the presence or absence of 100 pM estradiol (E2) and each experiment was repeated at least three times. Phenol red-free media were used in all experiments involving cell proliferation rates or yields. Cells were lysed and nuclei counted on a Coulter Counter Model ZM.

| SMILES | reversal by hormone of the inhibitory effect on MCF-7 proliferation |
| --- | --- |
| C[C@]12CCC(=O)C[C@@H]1CC[C@@H]1[C@@H]2CC[C@]2(C)[C@@H](O)CC[C@@H]12 [5α-dihydrotestosterone] | failed to reverse the effect of rHA |
| CC(=O)[C@H]1CC[C@H]2[C@@H]3CCC4=CC(=O)CC[C@]4(C)[C@H]3CC[C@]12C [Progesterone] | failed to reverse the effect of rHA |
| C[C@]1(O)CC[C@H]2[C@@H]3CCC4=CC(=O)CCC4=C3C=C[C@@]21C [R1881] | failed to reverse the effect of rHA |
| C[C@]12CCC(=O)C=C1CC[C@@H]1[C@@H]2[C@@H](O)C[C@@]2(C)[C@H]1CC[C@]2(O)C(=O)CO [hydrocortisone] | failed to reverse the effect of rHA |
| N[C@@H](Cc1cc(I)c(Oc2cc(I)c(O)c(I)c2)c(I)c1)C(=O)O [thyroxine] | failed to reverse the effect of rHA |
